Measured values published in ChEMBL document CHEMBL1201862, “PubChem BioAssay data set” (2004).
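Results reflect a 48-hour exposure of cells in 96-well plates to compound at five concentrations. Here, GI50 denotes the concentration required for 50% inhibition of growth.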 Active and inactive are the calls of the source. No stated cut-off is given here; in the data, active = GI50 up to about 1.1 µM and inactive = higher.

Assays:
Assay in all cases: inhibition of tumour cell growth, NCI panel, 48 h
[1] = test system: NCI/ADR-RES
[2] = test system: UO-31
[3] = test system: SNB-75
[4] = test system: SF-295
[5] = test system: OVCAR-4
[6] = test system: M14
[7] = test system: MDA-MB-435
[8] = test system: HOP-18
[9] = test system: NCI-H226
[10] = test system: M19-MEL
[11] = test system: OVCAR-3
[12] = test system: OVCAR-8
[13] = test system: SR
[14] = test system: SF-539
[15] = test system: SK-MEL-28
[16] = test system: HOP-62
[17] = test system: 786-0
[18] = test system: NCI-H23
[19] = test system: Hs-578T
[20] = test system: DU-145
[21] = test system: SNB-19
[22] = test system: SK-MEL-2
[23] = test system: HCT-15
[24] = test system: LXFL 529
[25] = test system: SK-MEL-5
[26] = test system: T47D
[27] = test system: HOP-92
[28] = test system: HT-29
[29] = test system: RXF 393
[30] = test system: OVCAR-5
[31] = test system: CAKI-1
[32] = test system: K562
[33] = test system: RPMI-8226
[34] = test system: NCI-H522
[35] = test system: UACC-257
[36] = test system: SK-OV-3
[37] = test system: PC-3
[38] = test system: ACHN
[39] = test system: U-251
[40] = test system: HCT-116
[41] = test system: HL-60
[42] = test system: SF-268
[43] = test system: Malme-3M
[44] = test system: SNB-78
[45] = test system: CCRF-CEM
[46] = test system: A498
[47] = test system: TK-10
[48] = test system: MOLT-4
[49] = test system: MDA-N
[50] = test system: KM12
[51] = test system: NCI-H460
[52] = test system: HCC 2998
[53] = test system: A549
[54] = test system: EKVX
[55] = test system: BT-549
[56] = test system: SN12C
[57] = test system: COLO 205
[58] = test system: SW-620
[59] = test system: LOX IMVI
[60] = test system: UACC-62
[61] = test system: XF498
[62] = test system: IGROV-1
[63] = test system: KM-20L2
[64] = test system: MCF7
[65] = test system: DLD-1
[66] = test system: DMS-273
[67] = test system: DMS-114

COC(=O)c1ccccc1NCc1cc(O)ccc1O
GI50 [1]: 19.2 µM (inactive)
GI50 [2]: 17.5 µM (inactive)
GI50 [3]: 28.8 µM (inactive)
GI50 [4]: 17.9 µM (inactive)
GI50 [5]: 17.9 µM (inactive)
GI50 [6]: 12.5 µM (inactive)
GI50 [7]: 17.8 µM (inactive)
GI50 [8]: 14.5 µM (inactive)
GI50 [9]: 18 µM (inactive)
GI50 [10]: 17.5 µM (inactive)
GI50 [11]: 16.7 µM (inactive)
GI50 [12]: 18.1 µM (inactive)
GI50 [13]: > 10 µM (inactive)
GI50 [14]: 17.7 µM (inactive)
GI50 [15]: 19.1 µM (inactive)
GI50 [16]: 28.6 µM (inactive)
GI50 [17]: 17.7 µM (inactive)
GI50 [18]: 32.9 µM (inactive)
GI50 [19]: 19.7 µM (inactive)
GI50 [20]: 50.8 µM (inactive)
GI50 [21]: 39 µM (inactive)
GI50 [22]: 22.3 µM (inactive)
GI50 [23]: 18.8 µM
GI50 [24]: 17.5 µM (inactive)
GI50 [25]: 19 µM (inactive)
GI50 [26]: 15.9 µM (inactive)
GI50 [27]: 17.7 µM (inactive)
GI50 [28]: 21.8 µM (inactive)
GI50 [29]: 15.9 µM (inactive)
GI50 [30]: 29.4 µM (inactive)
GI50 [31]: 19.4 µM (inactive)
GI50 [32]: 19.6 µM (inactive)
GI50 [33]: 10.5 µM (inactive)
GI50 [34]: 2.63 µM (inactive)
GI50 [35]: 15.6 µM (inactive)
GI50 [36]: > 100 µM (inactive)
GI50 [37]: 17 µM (inactive)
GI50 [38]: 16.2 µM (inactive)
GI50 [39]: 20.1 µM (inactive)
GI50 [40]: 19.5 µM (inactive)
GI50 [41]: 8 µM (inactive)
GI50 [42]: 27.9 µM (inactive)
GI50 [43]: 21.4 µM (inactive)
GI50 [44]: 20.3 µM (inactive)
GI50 [45]: 4.91 µM (inactive)
GI50 [46]: 34.3 µM (inactive)
GI50 [47]: 26.1 µM (inactive)
GI50 [48]: 16.1 µM (inactive)
GI50 [49]: 16.4 µM (inactive)
GI50 [50]: 17.5 µM (inactive)
GI50 [51]: 30.1 µM (inactive)
GI50 [52]: 23.4 µM (inactive)
GI50 [53]: 32.7 µM (inactive)
GI50 [54]: 22 µM (inactive)
GI50 [55]: 2.71 µM (inactive)
GI50 [56]: 18.6 µM (inactive)
GI50 [57]: 19.4 µM (inactive)
GI50 [58]: 24.2 µM (inactive)
GI50 [59]: 17.1 µM (inactive)
GI50 [60]: 18.2 µM (inactive)
GI50 [61]: 17.1 µM (inactive)
GI50 [62]: 25.9 µM (inactive)
GI50 [63]: > 100 µM (inactive)
GI50 [64]: 17.6 µM (inactive)
GI50 [65]: 20.2 µM (inactive)
GI50 [66]: 51.5 µM (inactive)

COC(=O)[C@@]12C(=O)C=CC(=O)C1C1C(=CC2C)OC2OC3(CCCCC3)OC21 (stereo not given in full)
GI50 [67]: 15.7 µM (inactive)
GI50 [2]: 16.8 µM (inactive)
GI50 [3]: 18.9 µM (inactive)
GI50 [4]: 18.9 µM (inactive)
GI50 [5]: 16.7 µM (inactive)
GI50 [6]: 17.8 µM (inactive)
GI50 [8]: 20.2 µM (inactive)
GI50 [9]: 18.8 µM (inactive)
GI50 [10]: 19.2 µM (inactive)
GI50 [11]: 19.6 µM (inactive)
GI50 [12]: 16.4 µM (inactive)
GI50 [15]: 16.9 µM (inactive)
GI50 [16]: 19.9 µM (inactive)
GI50 [17]: 17.5 µM (inactive)
GI50 [18]: 19.4 µM (inactive)
GI50 [21]: 17.7 µM (inactive)
GI50 [22]: 19 µM (inactive)
GI50 [23]: 13.2 µM
GI50 [24]: 13.5 µM (inactive)
GI50 [25]: 19.3 µM (inactive)
GI50 [28]: 21.6 µM (inactive)
GI50 [30]: 14.3 µM (inactive)
GI50 [31]: 18.2 µM (inactive)
GI50 [32]: 6.9 µM (inactive)
GI50 [33]: 4.89 µM (inactive)
GI50 [34]: 9.71 µM (inactive)
GI50 [35]: 17.1 µM (inactive)
GI50 [36]: 18.6 µM (inactive)
GI50 [38]: 16.9 µM (inactive)
GI50 [39]: 17.7 µM (inactive)
GI50 [40]: 15.9 µM (inactive)
GI50 [41]: 3.85 µM (inactive)
GI50 [42]: 20.9 µM (inactive)
GI50 [43]: 20.2 µM (inactive)
GI50 [44]: 20.6 µM (inactive)
GI50 [45]: 2.52 µM (inactive)
GI50 [46]: 17.9 µM (inactive)
GI50 [47]: 17.3 µM (inactive)
GI50 [48]: 6.11 µM (inactive)
GI50 [50]: 20 µM (inactive)
GI50 [51]: 18.8 µM (inactive)
GI50 [52]: 14.5 µM (inactive)
GI50 [53]: 19.3 µM (inactive)
GI50 [54]: 19.7 µM (inactive)
GI50 [56]: 17.7 µM (inactive)
GI50 [57]: 14.2 µM (inactive)
GI50 [58]: 19.3 µM (inactive)
GI50 [59]: 20.5 µM (inactive)
GI50 [60]: 15.2 µM (inactive)
GI50 [62]: 18.1 µM (inactive)
GI50 [63]: 20.5 µM (inactive)
GI50 [65]: 18.5 µM (inactive)
GI50 [66]: 19 µM (inactive)

NC(CO)c1ccccc1 (stereo not given)
GI50 [67]: > 100 µM (inactive)
GI50 [2]: > 100 µM (inactive)
GI50 [3]: > 100 µM (inactive)
GI50 [4]: > 100 µM (inactive)
GI50 [5]: > 100 µM (inactive)
GI50 [6]: > 100 µM (inactive)
GI50 [8]: 24.7 µM (inactive)
GI50 [9]: > 100 µM (inactive)
GI50 [11]: > 100 µM (inactive)
GI50 [12]: > 100 µM (inactive)
GI50 [13]: > 100 µM (inactive)
GI50 [14]: > 100 µM (inactive)
GI50 [15]: > 100 µM (inactive)
GI50 [16]: > 100 µM (inactive)
GI50 [18]: > 10 µM (inactive)
GI50 [21]: > 100 µM (inactive)
GI50 [22]: > 100 µM (inactive)
GI50 [23]: > 100 µM
GI50 [24]: > 100 µM (inactive)
GI50 [25]: > 100 µM (inactive)
GI50 [27]: > 100 µM (inactive)
GI50 [28]: > 100 µM (inactive)
GI50 [29]: > 100 µM (inactive)
GI50 [30]: > 100 µM (inactive)
GI50 [31]: > 100 µM (inactive)
GI50 [34]: > 100 µM (inactive)
GI50 [35]: > 100 µM (inactive)
GI50 [36]: > 100 µM (inactive)
GI50 [38]: > 100 µM (inactive)
GI50 [39]: > 100 µM (inactive)
GI50 [40]: > 100 µM (inactive)
GI50 [41]: > 100 µM (inactive)
GI50 [42]: > 100 µM (inactive)
GI50 [43]: > 100 µM (inactive)
GI50 [44]: > 100 µM (inactive)
GI50 [45]: 8.71 µM (inactive)
GI50 [47]: > 100 µM (inactive)
GI50 [48]: > 100 µM (inactive)
GI50 [50]: > 100 µM (inactive)
GI50 [51]: > 100 µM (inactive)
GI50 [52]: > 100 µM (inactive)
GI50 [53]: > 100 µM (inactive)
GI50 [54]: > 100 µM (inactive)
GI50 [58]: > 100 µM (inactive)
GI50 [59]: > 100 µM (inactive)
GI50 [60]: > 100 µM (inactive)
GI50 [61]: > 100 µM (inactive)
GI50 [62]: > 100 µM (inactive)
GI50 [63]: > 100 µM (inactive)
GI50 [65]: > 100 µM (inactive)
GI50 [66]: > 100 µM (inactive)
